Test [1] concerns arterial blood pressure and heart rate. As to the kind of experiment: Hypotensive activity in anaesthetised normotensive rats. In kind it is in vivo, rat (Sprague-Dawley). As to conditions: iv. The method, then:
The compounds are tested for hypotensive activity in anaesthetised normotensive rats. In this procedure adult male Sprague-Dawley rats weighing 200-400 g are anaesthetised with 70 mg/kg pentobarbitone sodium, i.p. The fermoral (or jugular) vein, the femoral (or carotid) artery, and the trachea are cannulated and the vascular canulae then flushed with 0.3 ml of heparinised saline (125 U/ml). The arterial blood pressure and heart rate are continuously monitored. Top-up doses of 6 or 12 mg/kg anaesthetic are administered as required until a stable base-line is obtained. A cumulative dose-response curve to the test compound is then obtained, using a 5 min dose interval. Each dose is administered in a volume of […] and flushed in with 0.5 ml saline. Systolic, diastolic, and mean arterial blood pressure and heart rate are then calculated 5 min after each dose and compared with the pre-dose value. Mean results from six rats are analysed using analysis of variants. The ED20 (ie the dose giving a 20% fall in mean arterial blood pressure) is also calculated. […] The minimum effective dose of this compound which produced a significant decrease in blood pressure was 1 μg/kg iv, and the ED20 was 5.2 μg/kg iv.

The target in test [2] is T1, 5-HT1 receptor (Rattus norvegicus, UniProt P19327).
T1 construct: measuring their ability to induce the 5-HT behavioural syndrome in rats; from tissue; host or cells: living rats (in vivo, intravenous dosing); endogenous receptor of the central nervous system
T1 sequence (P19327 1-422): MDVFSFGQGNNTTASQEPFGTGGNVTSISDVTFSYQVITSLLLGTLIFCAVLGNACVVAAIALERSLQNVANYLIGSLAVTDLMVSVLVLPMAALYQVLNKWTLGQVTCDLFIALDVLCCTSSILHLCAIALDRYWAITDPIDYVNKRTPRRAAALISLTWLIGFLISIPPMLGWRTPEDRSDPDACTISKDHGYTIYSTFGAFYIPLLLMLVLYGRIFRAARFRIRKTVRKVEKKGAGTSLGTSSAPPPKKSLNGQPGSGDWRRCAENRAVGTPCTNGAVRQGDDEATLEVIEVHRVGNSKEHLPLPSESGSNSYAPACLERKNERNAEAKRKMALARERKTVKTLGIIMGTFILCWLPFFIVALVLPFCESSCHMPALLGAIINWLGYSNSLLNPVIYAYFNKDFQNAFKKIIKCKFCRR
Put plainly: 5-HT1 receptor agonist activity in vivo: induction of the 5-HT behavioural syndrome in rats. As to conditions: iv, sequential up-down method. The method, then:
The compounds are evaluated for 5-HT1 receptor agonist activity in vivo by measuring their ability to induce the 5-HT behavioural syndrome in rats (A. R. Green, Neuropharmacology, 1984, 23 1521). Compounds which induce 5-HT-related behaviours are adjudged to be `active`, and a sequential up-down method (A. W. Kimball, W. T. Burnett, and D. G. Doherty, Radiation Research, 1957, 7, 1) is used to determine ED50 values for the compounds.

Setting [3] is: anaesthetised normotensive male Sprague-Dawley rats, cumulative dose-response, 5 min after each dose.

Usually ED50 stands for the midpoint of the dose-response relation.

On to `Oc1cccc2c1CC(N1CCC1)CC2` (centres unmarked) [Example 3, 7-(1-Azetidinyl)-5,6,7,8-tetrahydro-1-naphthalenol], for which the ED20 in test [1] (Rattus norvegicus, 5 min, anaesthetised normotensive rats, read-out: ED20 (dose giving a 20% fall in mean arterial blood pressure)) worked out at 5.2 µg/kg. Further, the minimal effective dose in test [1] (Rattus norvegicus, 5 min, anaesthetised normotensive rats, read-out: minimum effective dose which produced a significant decrease in blood pressure) came out at 1 µg/kg. Moreover, in test [1] (setting [3]), the “effect on blood pressure” value is listed as “dose-related falls” and the “effect on heart rate” value is reported as “dose-related falls”. In test [2], this compound came in with a median effective dose (ED50) of 70 µg/kg.

(Values after US5164385A, “Azetidine derivatives and hypotensive compositions thereof” (John Wyeth & Brother, Ltd., priority 1990, dated 1992).)
